In patent US20030153051A1, “Cholesterol oxidase” (priority 1998, published 2003):
“Also recorded” adds a separate entry of the source.

Key:
[1] = tested on: cholesterol oxidase derived from ST-200 strain; experiment: Effect of metal ions and the like on enzyme activity; format: biochemical, Pseudomonas sp. ST-200; details: for Relative activity (%): pH 7; for Inhibition of enzyme activity (in words): 1 mM
[2] = tested on: cholesterol oxidase derived from ST-200 strain; experiment: Effect of organic solvents on enzyme activity (ST-200); format: biochemical, Pseudomonas sp. ST-200; details: for Relative activity, ST-200: organic solvent 50% by volume of reaction solution, pH 7, 30° C., no solvent = 1; for Reaction velocity in solvent compared to cholesterol oxidases of Nocardia erythropolis, Pseudomonas sp., Streptomyces sp., Brevibacterium sp. (in words): organic solvent 50% by volume, 30° C., pH 7
[3] = tested on: cholesterol oxidase derived from Nocardia erythropolis; experiment: Effect of organic solvents on enzyme activity (Nocardia erythropolis); format: biochemical; details: organic solvent 50% by volume of reaction solution; pH 7, 30° C.; no solvent = 1
[4] = tested on: cholesterol oxidase derived from Pseudomonas sp.; experiment: Effect of organic solvents on enzyme activity (Pseudomonas sp.); format: biochemical; details: organic solvent 50% by volume of reaction solution; pH 7, 30° C.; no solvent = 1
[5] = tested on: cholesterol oxidase derived from Streptomyces sp.; experiment: Effect of organic solvents on enzyme activity (Streptomyces sp.); format: biochemical; details: organic solvent 50% by volume of reaction solution; pH 7, 30° C.; no solvent = 1
[6] = tested on: cholesterol oxidase derived from Brevibacterium sp.; experiment: Effect of organic solvents on enzyme activity (Brevibacterium sp.); format: biochemical; details: organic solvent 50% by volume of reaction solution; pH 7, 30° C.; no solvent = 1
[7] = tested on: cholesterol oxidase derived from ST-200 strain; experiment: Substrate specificity of enzyme; format: biochemical, Pseudomonas sp. ST-200; details: for Relative activity (%): various substrates, 30° C., pH 7, enzyme activity with cholesterol set to be 100
[8] = tested on: cholesterol oxidase derived from Brevibacterium sp.; experiment: Enzyme kinetics (Km, Vmax) of cholesterol oxidation, Lineweaver-Burk; format: biochemical; details: 30° C., pH 7
Method: (§1) Enzyme activity was measured as described in Test Example 1 at 30° C. at pH 7.

[9] = tested on: cholesterol oxidase derived from Nocardia erythropolis; experiment: as above; format: biochemical; details: 30° C., pH 7
Method: as §1

[10] = tested on: cholesterol oxidase derived from Pseudomonas sp. (comparison); experiment: as above; format: biochemical; details: 30° C., pH 7
Method: as §1

[11] = tested on: cholesterol oxidase derived from Pseudomonas sp. ST-200 (FERM BP-6661); experiment: as above; format: biochemical; details: 30° C., pH 7, 0 to 1 mM cholesterol
Method: as §1

[12] = tested on: cholesterol oxidase derived from Streptomyces sp.; experiment: as above; format: biochemical; details: 30° C., pH 7
Method: as §1

[13] = tested on: cholesterol oxidase derived from Pseudomonas sp. ST-200 (FERM BP-6661); experiment: Effect of metal ions and the like (additives) on enzyme activity; format: biochemical; details: additive at 1 mM; activity without additive = 100; cholesterol substrate, 30° C., pH 7
Method: Effect of metal ions and the like on the activity of the enzyme obtained in Example 1 was studied. Enzyme activity was measured as described in Test Example 1 at 30° C. at pH 7 after adding various metal compounds, to a final concentration of […], to the reaction system.

[14] = 0.03% Triton X-100, 0 to 1 mM cholesterol
[15] = head 0.03% Triton X-100 (0.3% in text)
[16] = additive 1 mM, 30° C., cholesterol as substrate, activity without additive set to be 100

In the case of Oc1cccc2cccnc12 [8-hydroxyquinoline, reference compound], the “Relative activity (%)” value [1] is reported as 85%.
c1ccccc1 [Benzene] was tested, and the “Effect of organic solvent on reaction velocity (in words)” value (“Effect of organic solvent” below) [2] was “increased”, the “Relative activity, ST-200” value [2] was 3.0 and the “Reaction velocity in solvent compared to cholesterol oxidases of Nocardia erythropolis, Pseudomonas sp., Streptomyces sp., Brevibacterium sp. (in words)” value [2] was “higher reaction velocity”. The “Relative activity, Nocardia erythropolis” value [3] was 1.5, the “Relative activity, Pseudomonas sp.” value [4] was 1.3 and the “Relative activity, Streptomyces sp.” value [5] was 0.9. For the same compound, the “Relative activity, Brevibacterium sp.” value [6] was 0.5.
For [Ca+2].[Cl-].[Cl-] [Calcium chloride], the “Relative activity (%)” value [1] was 106%.
For ClC(Cl)Cl [Chloroform], the “Relative activity, ST-200” value [2] was 0.2, the “Relative activity, Nocardia erythropolis” value [3] was 0.3 and the “Relative activity, Pseudomonas sp.” value [4] was 0.1. For the same compound, the “Relative activity, Streptomyces sp.” value [5] was 0.1 and the “Relative activity, Brevibacterium sp.” value [6] was under 0.1.
For CC(C)CCC[C@@H](C)[C@H]1CC[C@H]2[C@@H]3CC=C4C[C@@H](O)CC[C@]4(C)[C@H]3CC[C@]12C [Cholesterol, cholest-5-en-3β-ol], the “Action of the enzyme on the substrate (in words)” value (from here on “Action of the enzyme”) [7] was “strongly oxidized”, the “Relative activity (%)” value [7] was 100% and the Km [8, 14] was 63.3 µM. The Vmax [8, 14] was 12.0 µmol/min/mg, the Km [8, 15] was 925 µM and the Vmax [8, 15] was 11.3 µmol/min/mg. For the same compound, the Km [9, 14] was 5.14 µM, the Vmax [9, 14] was 9.8 µmol/min/mg and the Km [9, 15] was 44 µM. For the same compound, the Vmax [9, 15] was 6.8 µmol/min/mg, the Km [10, 14] was 9.41 µM and the Vmax [10, 14] was 11.0 µmol/min/mg. For the same compound, the Km [10, 15] was 76.1 µM, the Vmax [10, 15] was 10.3 µmol/min/mg and the Km ([11]; 0.03% Triton X-100) was 4.04 µM. For the same compound, the Vmax ([11]; 0.03% Triton X-100) was 13.1 µmol/min/mg, the Km [11, 15] was 52.2 µM and the Vmax [11, 15] was 12.1 µmol/min/mg. For the same compound, the Km [12, 14] was 16.3 µM, the Vmax [12, 14] was 15.8 µmol/min/mg and the Km [12, 15] was 160 µM. For the same compound, the Vmax [12, 15] was 15.3 µmol/min/mg.
For O=S(=O)([O-])[O-].[Cu+2] [Copper sulfate], the “Relative activity (%)” value [1, 16] was 105%.
For C1CCCCCCC1 [Cyclooctane], the “Effect of organic solvent” value [2] was “increased”, the “Relative activity, ST-200” value [2] was 1.4 and the “Reaction velocity in solvent compared to cholesterol oxidases of Nocardia erythropolis, Pseudomonas sp., Streptomyces sp., Brevibacterium sp. (in words)” value [2] was “higher reaction velocity”. The “Relative activity, Nocardia erythropolis” value [3] was 1.1, the “Relative activity, Pseudomonas sp.” value [4] was 0.8 and the “Relative activity, Streptomyces sp.” value [5] was 0.4. For the same compound, the “Relative activity, Brevibacterium sp.” value [6] was 0.2.
With C[C@]12CC[C@H](O)CC1=CC[C@@H]1[C@@H]2CC[C@]2(C)C(=O)CC[C@@H]12 [Dehyoepiandrosterone, 3β-Hydroxyandrost-5-en-17-one] the “Relative activity (%)” value [7] was 16%.
With c1ccc(Cc2ccccc2)cc1 [Diphenylmethane] the “Effect of organic solvent” value [2] was “increased”, the “Relative activity, ST-200” value [2] was 3.1 and the “Reaction velocity in solvent compared to cholesterol oxidases of Nocardia erythropolis, Pseudomonas sp., Streptomyces sp., Brevibacterium sp. (in words)” value [2] was “higher reaction velocity”. For the same compound, the “Relative activity, Nocardia erythropolis” value [3] was 1.6, the “Relative activity, Pseudomonas sp.” value [4] was 1.5 and the “Relative activity, Streptomyces sp.” value [5] was 1.0. For the same compound, the “Relative activity, Brevibacterium sp.” value [6] was 0.8.
Compound O=C(O)CN(CCN(CC(=O)O)CC(=O)O)CC(=O)O [EDTA] has a Relative activity [13] of 88%.
C[C@]12CC[C@H](O)C[C@@H]1CC[C@@H]1[C@@H]2CC[C@]2(C)C(=O)CC[C@@H]12 [Epiandrosterone, 5α-androstan-3β-ol-17-one] was tested, and the “Relative activity (%)” value [7] was 10%.
With CC(C)CCC[C@@H](C)[C@H]1CC[C@H]2[C@@H]3CC=C4C[C@H](O)CC[C@]4(C)[C@H]3CC[C@]12C [Epicholesterol, Cholest-5-en-3α-ol] the “Action of the enzyme” value [7] was “does not act on; also recorded: did not act on” and the “Relative activity (%)” value [7] was 0%.
In the case of CC(C)[C@@H](C)C=C[C@@H](C)[C@H]1CC[C@H]2C3=CC=C4C[C@@H](O)CC[C@]4(C)[C@H]3CC[C@]12C [Ergosterol, Ergosta-5,7,22-trien-3β-ol], the “Relative activity (%)” value [7] is reported as 20%.
[Cl-].[Cl-].[Mg+2] [Magnesium chloride] was tested, and the “Relative activity (%)” value [1] was 102%.
For [Cl][Hg][Cl] [Mercury chloride], the “Relative activity (%)” value [1, 16] was 0% and the “Inhibition of enzyme activity (in words)” value ([1]; cholesterol as substrate) was “inhibited; also recorded: strongly inhibited”.
[Cl][Ni][Cl] [Nickel chloride] was tested, and the “Relative activity (%)” value [1] was 90%.
With Cc1ccc(C)cc1 [Paraxylene] the “Effect of organic solvent” value [2] was “increased”, the “Relative activity, ST-200” value [2] was 3.4 and the “Reaction velocity in solvent compared to cholesterol oxidases of Nocardia erythropolis, Pseudomonas sp., Streptomyces sp., Brevibacterium sp. (in words)” value [2] was “higher reaction velocity”. The “Relative activity, Nocardia erythropolis” value [3] was 1.6, the “Relative activity, Pseudomonas sp.” value [4] was 1.5 and the “Relative activity, Streptomyces sp.” value [5] was 1.1. The “Relative activity, Brevibacterium sp.” value [6] was 0.7.
CC(=O)[C@H]1CC[C@H]2[C@@H]3CC=C4C[C@@H](O)CC[C@]4(C)[C@H]3CC[C@]12C [Pregnenolone, 3β-Hydroxypregn-5-en-20-one] was tested, and the “Relative activity (%)” value [7] was 32%.
In the case of CCCc1ccccc1 [Propylbenzene], the “Effect of organic solvent” value [2] is reported as “increased”, the “Relative activity, ST-200” value [2] is reported as 3.2 and the “Reaction velocity in solvent compared to cholesterol oxidases of Nocardia erythropolis, Pseudomonas sp., Streptomyces sp., Brevibacterium sp. (in words)” value [2] is reported as “higher reaction velocity”. For the same compound, the “Relative activity, Nocardia erythropolis” value [3] was 1.6, the “Relative activity, Pseudomonas sp.” value [4] was 1.3 and the “Relative activity, Streptomyces sp.” value [5] was 1.1. The “Relative activity, Brevibacterium sp.” value [6] was 0.8.
O=[N+]([O-])[O-].[Ag+] [Silver nitrate] was tested, and the “Relative activity (%)” value [1, 16] was 2% and the “Inhibition of enzyme activity (in words)” value ([1]; cholesterol as substrate) was “inhibited; also recorded: strongly inhibited”.
Cc1ccccc1 [Toluene] was tested, and the “Effect of organic solvent” value [2] was “increased”, the “Relative activity, ST-200” value [2] was 3.5 and the “Reaction velocity in solvent compared to cholesterol oxidases of Nocardia erythropolis, Pseudomonas sp., Streptomyces sp., Brevibacterium sp. (in words)” value [2] was “higher reaction velocity”. The “Relative activity, Nocardia erythropolis” value [3] was 1.7, the “Relative activity, Pseudomonas sp.” value [4] was 1.4 and the “Relative activity, Streptomyces sp.” value [5] was 1.2. For the same compound, the “Relative activity, Brevibacterium sp.” value [6] was 0.5.
With [Cl-].[Cl-].[Zn+2] [Zinc chloride] the “Relative activity (%)” value [1] was 92%.
c1cnc2c(c1)ccc1cccnc12 [o-phenanthroline] gave a Relative activity [13] of 92%.
In the case of c1ccc(-c2ccccn2)nc1 [α,α-dipyridyl, reference compound], the “Relative activity (%)” value [1] is reported as 98%.
With c1ccc(-c2ccccn2)nc1 [α,α-dipyridyl] the Relative activity [13] was 98%.
With CC(C)CCC[C@@H](C)[C@H]1CC[C@H]2[C@@H]3CC[C@H]4C[C@@H](O)CC[C@]4(C)[C@H]3CC[C@]12C [β-cholestanol] the “Action of the enzyme” value [7] was “strongly oxidized” and the “Relative activity (%)” value [7] was 69%.
For CC[C@H](CC[C@@H](C)[C@H]1CC[C@H]2[C@@H]3CC=C4C[C@@H](O)CC[C@]4(C)[C@H]3CC[C@]12C)C(C)C [β-sitosterol, sitost-5-en-3β-ol], the “Action of the enzyme” value [7] was “strongly oxidized” and the “Relative activity (%)” value [7] was 84%.
In the case of Iron sulfate, the “Relative activity (%)” value [1, 16] is reported as 94%.
In the case of Manganese chloride, the “Relative activity (%)” value [1, 16] is reported as 92%.
